# According to patent EP4818179A1, “PREPARATION FOR AND USE OF PYRIMIDO-THIOPYRANDIONE INHIBITOR FOR KRAS G12C MUTANT PROTEIN” (Ya Therapeutics Inc, priority 2024, dated 2025):
# Test system: H358 (KRAS G12C mutant) cells
# Experiment: Tumor cell proliferation inhibition experiment (Cell Titer-Glo luminescent cell viability assay)
# Conditions: Homo sapiens, NCI-H358, 72 h, read-out: NCI-H538 IC50(nm)
# Method: H358 (KRAS G12C mutant) cells were digested, centrifuged, and resuspended. Cell density was determined using a Scepter automated cell counter. The cells were diluted to a solution containing 44,000 cells per milliliter. The adjusted cell solution was added to 90 µL per well in a 96-well culture plate. The 96-well plate was placed in a 37°C, 5% CO2 incubator. After culturing the cells for 24 hours, different concentrations of the test compound were added. The cells were then cultured with the compound for 72 hours in the presence of 10% fetal bovine serum. The ATP content was measured using the Cell Titer-Glo luminescent cell viability assay kit (see manufacturer's instructions for details) to assess cell growth inhibition. In short, 30 µL of Cell Titer-Glo reagent was added to each well, and the plate was shaken for 10 minutes to induce cell lysis. The fluorescence signal was detected and recorded using a Fluoroskan Ascent FL (Thermo). The maximum signal value was obtained from cells treated with dimethyl sulfoxide for 72 hours. Minimum signal value was obtained from a single culture medium (zero cell count). Inhibition rate % = (maximum signal value - minimum signal value) / (maximum signal value - minimum signal value × 100%). Data was processed using GraphPadprism 5 software. IC50 values were calculated by fitting an S-shaped dose-response curve.
row,Compound,IC50
1,"C=CC(=O)N1CCN(c2nc(OC[C@@]34CCCN3C[C@H](F)C4)nc3c2CS(=O)(=O)C(c2c(F)c(N)cc(C)c2C(F)(F)F)C3)[C@@H](C)C1 (stereo partly drawn) [Compound 1, 1-((3S)-4-(7-(3-amino-2-fluoro-5-methyl-6-(trifluoromethyl)phenyl)-2-(((2R,7AS)-2-fluorotetrahydro-1H-pyrrolazin-7a(5H)-yl)methoxy)-6,6-dioxo-7,8-dihydro-5H-thiaran[4,3-d]pyrimidin-4-yl)-3-methylpyrazin-1-yl)prop-2-en-1-one]",< 0.01 µM
2,"C=CC(=O)N1CCN(c2nc(OC[C@@]34CCCN3C[C@H](F)C4)nc3c2CS(=O)(=O)[C@H](c2c(F)c(N)cc(C)c2C(F)(F)F)C3)[C@@H](C)C1 [Compound 1A, 1-((3S)-4-((7S)-7-(3-amino-2-fluoro-5-methyl-6-(trifluoromethyl)phenyl)-2-(((2R,7A S)-2-fluorotetrahydro-1H-pyrrolazin-7a(5H)-yl)methoxy)-6,6-dioxo-7,8-dihydro-5H-thiaran[4,3-d]pyrimidin-4-yl)-3-methylpyrazin-1-yl)prop-2-en-1-one]",< 0.01 µM
3,"C=CC(=O)N1CCN(c2nc(OC[C@@]34CCCN3C[C@H](F)C4)nc3c2CS(=O)(=O)[C@@H](c2c(F)c(N)cc(C)c2C(F)(F)F)C3)[C@@H](C)C1 [Compound 1B, 1-((3S)-4-((7R)-7-(3-amino-2-fluoro-5-methyl-6-(trifluoromethyl)phenyl)-2-(((2R,7A S)-2-fluorotetrahydro-1H-pyrrolazin-7a(5H)-yl)methoxy)-6,6-dioxo-7,8-dihydro-5H-thiaran[4,3-d]pyrimidin-4-yl)-3-methylpyrazin-1-yl)prop-2-en-1-one]",< 0.01 µM
4,"C=C(F)C(=O)N1CCN(c2nc(OC[C@@]34CCCN3C[C@H](F)C4)nc3c2CS(=O)(=O)C(c2c(F)c(N)cc(C)c2C(F)(F)F)C3)[C@@H](C)C1 (stereo partly drawn) [Compound 2, 1-((3S)-4-(7-(3-amino-2-fluoro-5-methyl-6-(trifluoromethyl)phenyl)-2-(((2R,7AS)-2-fluorotetrahydro-1H-pyrrolazin-7a(5H)-yl)methoxy)-6,6-dioxo-7,8-dihydro-5H-thiaran[4,3-d]pyrimidin-4-yl)-3-methylpyrazin-1-yl)-2-fluoroprop-2-en-1-one]",< 0.01 µM
5,"C=C(F)C(=O)N1CCN(c2nc(OC[C@@]34CCCN3C[C@H](F)C4)nc3c2CS(=O)(=O)[C@H](c2c(F)c(N)cc(C)c2C(F)(F)F)C3)[C@@H](C)C1 [Compound 2A, 1-((3S)-4-((7S)-7-(3-amino-2-fluoro-5-methyl-6-(trifluoromethyl)phenyl)-2-(((2R,7A S)-2-fluorotetrahydro-1H-pyrrolazin-7a(5H)-yl)methoxy)-6,6-dioxo-7,8-dihydro-5H-thiaran[4,3-d]pyrimidin-4-yl)-3-methylpyrazin-1-yl)-2-fluoroprop-2-en-1-one]",< 0.01 µM
6,"C=C(F)C(=O)N1CCN(c2nc(OC[C@@]34CCCN3C[C@H](F)C4)nc3c2CS(=O)(=O)[C@@H](c2c(F)c(N)cc(C)c2C(F)(F)F)C3)[C@@H](C)C1 [Compound 2B, 1-((3S)-4-((7R)-7-(3-amino-2-fluoro-5-methyl-6-(trifluoromethyl)phenyl)-2-(((2R,7A S)-2-fluorotetrahydro-1H-pyrrolazin-7a(5H)-yl)methoxy)-6,6-dioxo-7,8-dihydro-5H-thiaran[4,3-d]pyrimidin-4-yl)-3-methylpyrazin-1-yl)-2-fluoroprop-2-en-1-one]",< 0.01 µM
7,"C=CC(=O)N1CCN(c2nc(OC[C@@]34CCCN3C[C@H](F)C4)nc3c2CS(=O)(=O)C(c2c(F)c(N)cc(C)c2C(F)(F)F)C3)C[C@@H]1CC#N (stereo partly drawn) [Compound 3, 2-((2S)-1-Acryloyl-4-(7-(3-amino-2-fluoro-5-methyl-6-(trifluoromethyl)phenyl)-2-(((2R,7AS)-2-fluorotetrahydro-1H-pyrrolazin-7a(5H)-yl)methoxy)-6,6-dioxo-7,8-dihydro-5H-thiaran[4,3-d]pyrimidin-4-yl)pyrazin-2-yl)acetonitrile]",< 0.01 µM
8,"C=C(F)C(=O)N1CCN(c2nc(OC[C@@]34CCCN3C[C@H](F)C4)nc3c2CS(=O)(=O)C(c2c(F)c(N)cc(C)c2C(F)(F)F)C3)C[C@@H]1CC#N (stereo partly drawn) [Compound 4, 2-((2S)-4-(7-(3-amino-2-fluoro-5-methyl-6-(trifluoromethyl)phenyl)-2-(((2R,7AS)-2-fluorotetrahydro-1H-pyrrolazin-7a(5H)-yl)methoxy)-6,6-dioxo-7,8-dihydro-5H-thiaran[4,3-d]pyrimidin-4-yl)-1-(2-fluoroacryloyl)pyrazin-2-yl)acetonitrile]",< 0.01 µM
9,"C=CC(=O)N1CCN(c2nc(OC[C@@]34CCCN3C[C@H](F)C4)nc3c2CS(=O)(=O)C(c2nc(N)cc(C)c2C(F)(F)F)C3)[C@@H](C)C1 (stereo partly drawn) [Compound 5, 1-((3S)-4-(7-(6-amino-4-methyl-3-(trifluoromethyl)pyridin-2-yl)-2-(((2R,7AS)-2-fluorotetrahydro-1H-pyrrolazin-7a(5H)-yl)methoxy)-6,6-dioxo-7,8-dihydro-5H-thiaran[4,3-d]pyrimidin-4-yl)-3-methylpyrazin-1-yl)prop-2-en-1-one]",< 0.01 µM
10,"C=C(F)C(=O)N1CCN(c2nc(OC[C@@]34CCCN3C[C@H](F)C4)nc3c2CS(=O)(=O)C(c2nc(N)cc(C)c2C(F)(F)F)C3)[C@@H](C)C1 (stereo partly drawn) [Compound 6, 1-((3S)-4-(7-(6-amino-4-methyl-3-(trifluoromethyl)pyridin-2-yl)-2-(((2R,7AS)-2-fluorotetrahydro-1H-pyrrolazin-7a(5H)-yl)methoxy)-6,6-dioxo-7,8-dihydro-5H-thiaran[4,3-d]pyrimidin-4-yl)-3-methylpyrazin-1-yl)-2-fluoroprop-2-en-1-one]",< 0.01 µM

# Second part, the compound after the results:
row,IC50,Compound
1,< 0.01 µM,"C=CC(=O)N1CCN(c2nc(OC[C@@]34CCCN3C[C@H](F)C4)nc3c2CS(=O)(=O)[C@H](c2c(F)c(N)cc(C)c2C(F)(F)F)C3)C[C@@H]1CC#N [Compound 3A, 2-((2S)-1-Acryloyl-4-((7S)-7-(3-amino-2-fluoro-5-methyl-6-(trifluoromethyl)phenyl)-2-(((2R,7AS)-2-fluorotetrahydro-1H-pyrrolazin-7a(5H)-yl)methoxy)-6,6-dioxo-7,8-di hydro-5H-thiaran[4,3-d]pyrimidin-4-yl)pyrazin-2-yl)acetonitrile]"
2,< 0.01 µM,"C=CC(=O)N1CCN(c2nc(OC[C@@]34CCCN3C[C@H](F)C4)nc3c2CS(=O)(=O)[C@@H](c2c(F)c(N)cc(C)c2C(F)(F)F)C3)C[C@@H]1CC#N [Compound 3B, 2-((2S)-1-Acryloyl-4-((7R)-7-(3-amino-2-fluoro-5-methyl-6-(trifluoromethyl)phenyl) -2-(((2R,7AS)-2-fluorotetrahydro-1H-pyrrolazin-7a(5H)-yl)methoxy)-6,6-dioxo-7,8-dihydro-5H-thiaran[4,3-d]pyrimidin-4-yl)pyrazin-2-yl)acetonitrile]"
3,< 0.01 µM,"C=C(F)C(=O)N1CCN(c2nc(OC[C@@]34CCCN3C[C@H](F)C4)nc3c2CS(=O)(=O)[C@H](c2c(F)c(N)cc(C)c2C(F)(F)F)C3)C[C@@H]1CC#N [Compound 4A, 2-((2S)-4-((7S)-7-(3-amino-2-fluoro-5-methyl-6-(trifluoromethyl)phenyl)-2-(((2R, 7A S)-2-fluorotetrahydro-1H-pyrrolazin-7a(5H)-yl)methoxy)-6,6-dioxo-7,8-dihydro-5H-thiaran[4,3-d]pyrimidin-4-yl)-1-(2-fluoroacryloyl)pyrazin-2-yl)acetonitrile]"
4,< 0.01 µM,"C=C(F)C(=O)N1CCN(c2nc(OC[C@@]34CCCN3C[C@H](F)C4)nc3c2CS(=O)(=O)[C@@H](c2c(F)c(N)cc(C)c2C(F)(F)F)C3)C[C@@H]1CC#N [Compound 4B, 2-((2S)-4-((7R)-7-(3-amino-2-fluoro-5-methyl-6-(trifluoromethyl)phenyl)-2-(((2R, 7A S)-2-fluorotetrahydro-1H-pyrrolazin-7a(5H)-yl)methoxy)-6,6-dioxo-7,8-dihydro-5H-thiaran[4,3-d]pyrimidin-4-yl)-1-(2-fluoroacryloyl)pyrazin-2-yl)acetonitrile]"
5,< 0.01 µM,"C=CC(=O)N1CCN(c2nc(OC[C@@]34CCCN3C[C@H](F)C4)nc3c2CS(=O)(=O)[C@H](c2nc(N)cc(C)c2C(F)(F)F)C3)[C@@H](C)C1 [Compound 5A, 1-((3S)-4-((7S)-7-(6-amino-4-methyl-3-(trifluoromethyl)pyridin-2-yl)-2-(((2R,7AS)-2-fluorotetrahydro-1H-pyrrolazin-7a(5H)-yl)methoxy)-6,6-dioxo-7,8-dihydro-5H-thiaran[4,3-d]pyrimidin-4-yl)-3-methylpyrazin-1-yl)prop-2-en-1-one]"
6,< 0.01 µM,"C=CC(=O)N1CCN(c2nc(OC[C@@]34CCCN3C[C@H](F)C4)nc3c2CS(=O)(=O)[C@@H](c2nc(N)cc(C)c2C(F)(F)F)C3)[C@@H](C)C1 [Compound 5B, 1-((3S)-4-((7R)-7-(6-amino-4-methyl-3-(trifluoromethyl)pyridin-2-yl)-2-(((2R,7AS)-2-fluorotetrahydro-1H-pyrrolazin-7a(5H)-yl)methoxy)-6,6-dioxo-7,8-dihydro-5H-thiaran[4,3-d]pyrimidin-4-yl)-3-methylpyrazin-1-yl)prop-2-en-1-one]"
7,< 0.01 µM,"C=C(F)C(=O)N1CCN(c2nc(OC[C@@]34CCCN3C[C@H](F)C4)nc3c2CS(=O)(=O)[C@H](c2nc(N)cc(C)c2C(F)(F)F)C3)[C@@H](C)C1 [Compound 6A, 1-((3S)-4-((7S)-7-(6-amino-4-methyl-3-(trifluoromethyl)pyridin-2-yl)-2-(((2R,7AS)-2-fluorotetrahydro-1H-pyrrolazin-7a(5H)-yl)methoxy)-6,6-dioxo-7,8-dihydro-5H-thiaran[4,3-d]pyrimidin-4-yl)-3-methylpyrazin-1-yl)-2-fluoroprop-2-en-1-one]"
8,< 0.01 µM,"C=C(F)C(=O)N1CCN(c2nc(OC[C@@]34CCCN3C[C@H](F)C4)nc3c2CS(=O)(=O)[C@@H](c2nc(N)cc(C)c2C(F)(F)F)C3)[C@@H](C)C1 [Compound 6B, 1-((3S)-4-((7R)-7-(6-amino-4-methyl-3-(trifluoromethyl)pyridin-2-yl)-2-(((2R,7AS)-2-fluorotetrahydro-1H-pyrrolazin-7a(5H)-yl)methoxy)-6,6-dioxo-7,8-dihydro-5H-thiaran[4,3-d]pyrimidin-4-yl)-3-methylpyrazin-1-yl)-2-fluoroprop-2-en-1-one]"
